From article PMC3309038 (Bioorganic & medicinal chemistry letters, 2012)

Key:
[1] = Microsomal stability assay, human liver microsomes; type: in vitro ADME; conditions: pH 7.4
[2] = in vitro; type: in vitro ADME; conditions: rat, microsomes, pH 7.4
[3] = tested on: wild-type HIV-1 NL4-3; assay: Anti-HIV activity against wild-type HIV-1 NL4-3 infection of TZM-bl cells; type: cell-based; conditions: HIV-1 NL4-3 wild-type
[4] = tested on: TZM-bl cells; conditions: read-out: CC50, cytotoxicity to 50% of cells, published previously; cited from earlier work

SMILES | microsomal CLint at 1 μM [1] [µL/min/mg] | microsomal CLint at 1 μM [2] [µL/min/mg] | Selectivity index (SI), ratio of CC50/EC50 [3] | CC50 [4] [µM]
COC(=O)c1cc(N)c(Nc2ccc(C#N)cc2)cc1Oc1c(C)cc(/C=C/C#N)cc1C [Compound 9a] | – | – | >8465 | –
Cc1cc(/C=C/C#N)cc(C)c1Nc1ccnc(Nc2ccc(C#N)cc2)n1 [Compound 2, rilpivirine] | 200 | 57 | – | –
Cc1cc(/C=C/C#N)cc(C)c1Oc1cc(Nc2ccc(C#N)cc2)c(N)cc1[N+](=O)[O-] [Compound 3] | 150 | 50 | – | > 47.1

The next lines start with results.

microsomal CLint at 1 μM [1] [µL/min/mg] | microsomal CLint at 1 μM [2] [µL/min/mg] | SMILES | Selectivity index (SI), ratio of CC50/EC50 [3] | CC50 [4] [µM]
230 | – | Cc1cc(/C=C/C#N)cc(C)c1Oc1cc(Nc2ccc(C#N)cc2)c(N)cc1CO [Compound 9e] | – | –
200 | 57 | Cc1cc(/C=C/C#N)cc(C)c1Oc1cc(Nc2ccc(C#N)cc2)c(N)cc1C(N)=O [Compound 9c] | – | –
